ChEMBL document CHEMBL2424624, “Syntheses and antitumor activities of N'1,N'3-dialkyl-N'1,N'3-di-(alkylcarbonothioyl) malonohydrazide: the discovery of elesclomol” (Bioorg Med Chem Lett, 2013)
Each block holds one molecule with its values, some of them ahead of it.

How the values were obtained:
Assay type in all cases: ADME, organism-based
[1] = AUC in nu/nu mouse at 25 mg/kg in presence of taxol; parameters: dose 25 mg/kg; conditions: plasma
[2] = Cmax in nu/nu mouse at 25 mg/kg in presence of taxol; parameters: dose 25 mg/kg; conditions: in vivo
[3] = Half life in nu/nu mouse at 25 mg/kg in presence of taxol; parameters: dose 25 mg/kg; conditions: in vivo
[4] = AUC in rat at 25 mg/kg in presence of taxol; parameters: dose 25 mg/kg; conditions: plasma
[5] = Cmax in rat at 25 mg/kg in presence of taxol; parameters: dose 25 mg/kg; conditions: in vivo
[6] = Half life in rat at 25 mg/kg in presence of taxol; parameters: dose 25 mg/kg; conditions: in vivo
[7] = AUC in nu/nu mouse at 25 mg/kg, iv; parameters: dose 25 mg/kg, route intravenous; conditions: plasma
[8] = AUC in rat at 5 mg/kg; parameters: dose 5 mg/kg; conditions: plasma
[9] = Half life in rat at 5 mg/kg; parameters: dose 5 mg/kg; conditions: in vivo
[10] = Cmax in rat at 5 mg/kg; parameters: dose 5 mg/kg; conditions: in vivo
[11] = Volume of distribution at steady state in nu/nu mouse at 25 mg/kg, iv; parameters: dose 25 mg/kg, route intravenous; conditions: in vivo, read-out: Vdss
[12] = Clearance in nu/nu mouse at 25 mg/kg, iv; parameters: dose 25 mg/kg, route intravenous; conditions: in vivo
[13] = Cmax in nu/nu mouse at 25 mg/kg, iv; parameters: dose 25 mg/kg, route intravenous; conditions: in vivo
[14] = Apparent terminal half life in nu/nu mouse at 25 mg/kg, iv; parameters: dose 25 mg/kg, route intravenous; conditions: in vivo, read-out: betat1/2(app) (converted)
[15] = Volume of distribution at steady state in Sprague-Dawley rat at 25 mg/kg, iv; parameters: dose 25 mg/kg, route intravenous; conditions: in vivo, read-out: Vdss
[16] = AUC in Sprague-Dawley rat at 25 mg/kg, iv; parameters: dose 25 mg/kg, route intravenous; conditions: plasma
[17] = Clearance in Sprague-Dawley rat at 25 mg/kg, iv; parameters: dose 25 mg/kg, route intravenous; conditions: in vivo
[18] = Apparent terminal half life in Sprague-Dawley rat at 25 mg/kg, iv; parameters: dose 25 mg/kg, route intravenous; conditions: in vivo, read-out: betat1/2(app) (converted)
[19] = Cmax in Sprague-Dawley rat at 25 mg/kg, iv; parameters: dose 25 mg/kg, route intravenous; conditions: in vivo
[20] = AUC in nu/nu mouse at 5 mg/kg in presence of STA-4783; parameters: dose 5 mg/kg; conditions: plasma
[21] = Half life in nu/nu mouse at 5 mg/kg in presence of STA-4783; parameters: dose 5 mg/kg; conditions: in vivo
[22] = Cmax in nu/nu mouse at 5 mg/kg in presence of STA-4783; parameters: dose 5 mg/kg; conditions: in vivo
[23] = AUC in rat at 5 mg/kg in presence of STA-4783; parameters: dose 5 mg/kg; conditions: plasma
[24] = Cmax in rat at 5 mg/kg in presence of STA-4783; parameters: dose 5 mg/kg; conditions: in vivo

AUC [1]: 11.9 µM·h | Cmax [2]: 37.8 µM | half-life [3]: 1.2 h | AUC [4]: 36.8 µM·h | Cmax [5]: 63.3 µM | half-life [6]: 1.7 h | AUC [7]: 35.9 µM·h | AUC [8]: 10.3 µM·h | half-life [9]: 3.1 h | Cmax [10]: 21.7 µM | Vd [11]: 0.51 L/kg | clearance [12]: 29 mL/min/kg | Cmax [13]: 85.2 µM | half-life [14]: 1.9 h | Vd [15]: 0.1 L/kg | AUC [16]: 32.7 µM·h | clearance [17]: 13.2 mL/min/kg | half-life [18]: 1.94 h | Cmax [19]: 56.3 µM
SMILES: CN(NC(=O)CC(=O)NN(C)C(=S)c1ccccc1)C(=S)c1ccccc1 [ELESCLOMOL]

AUC [20]: 2.95 µM·h | half-life [21]: 2.26 h | Cmax [22]: 10.6 µM | AUC [23]: 11.9 µM·h | Cmax [24]: 20.4 µM
SMILES: CC(=O)O[C@H]1C(=O)[C@@]2(C)[C@H]([C@H](OC(=O)c3ccccc3)[C@]3(O)C[C@H](OC(=O)[C@H](O)[C@@H](NC(=O)c4ccccc4)c4ccccc4)C(C)=C1C3(C)C)[C@]1(OC(C)=O)CO[C@@H]1C[C@@H]2O [PACLITAXEL]
